{"source": "patent US8822471B2", "about": "“Compounds, pharmaceutical compositions and uses thereof” (Boehringer Ingelheim International GmbH, priority 2011, dated 2014)"}
{"target": "T1, mutant form of the human GPR119 receptor (Homo sapiens, UniProt Q8TDV5, S329A/T327A)", "T1 construct": "T327 & S329 changed to alanines; expressed in transfected cells", "T1 sequence (Q8TDV5 2-335 T327A/S329A)": "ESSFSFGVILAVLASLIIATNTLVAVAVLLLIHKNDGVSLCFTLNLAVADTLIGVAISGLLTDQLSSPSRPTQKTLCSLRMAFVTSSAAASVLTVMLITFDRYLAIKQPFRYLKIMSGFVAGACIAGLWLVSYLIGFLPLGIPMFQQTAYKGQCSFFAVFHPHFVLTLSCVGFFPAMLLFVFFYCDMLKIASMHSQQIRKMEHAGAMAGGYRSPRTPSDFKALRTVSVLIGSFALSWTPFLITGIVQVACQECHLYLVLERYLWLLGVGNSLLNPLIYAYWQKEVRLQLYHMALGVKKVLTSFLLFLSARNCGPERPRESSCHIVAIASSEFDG", "experiment": "LANCE cAMP-384 assay in HEK293 cells stably expressing a mutant form of the human GPR119 receptor", "assay_type": "cell-based", "details": "HEK293 cells stably expressing mutant human GPR119, LANCE cAMP-384 Kit, 20 min at 37° C.", "method": "Quantitative detection of cAMP accumulation from cells expressing human GPR119 receptor is achieved using Perkin Elmer's LANCE cAMP-384 Kit (Cat#AD0264) according to the manufacturer's protocol. Briefly, HEK293 cells stably expressing a mutant form of the human GPR119 receptor as assay tool (Methionine 1 replaced with the amino acid sequence […], and T327 & S329 changed to alanines; SEQ ID No. 1) are grown to 50-70% confluency in cell culture media (DMEM, 10% heat inactivated Fetal Bovine Serum, 50 I.U./mL penicillin, 50 μg/mL streptomycin, 10 mM HEPES, 20 μg/mL G418 Sulfate). On the day of the assay, GPR119 stable HEK293 cells are lifted from the tissue culture plate and 1000 cells/well are incubated along with various concentrations of test compounds for 20 min at 37° C. Detection Buffer (50 mM HEPES, 10 mM calcium chloride, 0.35% Triton X-100, 1 mg/mL BSA) containing cAMP-specific antibody is then added to all wells and allowed to equilibrate in the dark for 10 minutes at room temperature. Upon equilibration, Detection Buffer containing europium-labeled cAMP tracer complex is added to all wells and allowed to react for 1 hour at room temperature. After 1 hour, bound europium-labeled cAMP tracer is measured using a Perkin Elmer Envision plate reader. The quantity of cAMP generated in each well is derived from a standard curve. EC50 is determined using nonlinear regression analysis of the cAMP values over a range of agonist concentration (12 points spanning the range from 30 μM to 100 pM).", "units": {"EC50": "nM"}}
{"molecule": "Cc1nnnn1-c1ccc(C(=O)N(C2CC2)[C@@H]2CCN(c3ccc(C(F)(F)F)cn3)C[C@@H]2F)cc1", "note": "(single isomer, unassigned) [Example 120]", "EC50": 745}
{"molecule": "O=C(c1ccc(-n2cnnn2)c(F)c1)N(C1CC1)[C@@H]1CCN(c2ccc(C(F)(F)F)cn2)C[C@@H]1F", "note": "(single isomer, unassigned) [Example 121]", "EC50": 134}
{"molecule": "Cc1nccn1-c1ccc(C(=O)N(C2CC2)C2CCN(c3ncc(C(F)(F)F)cc3F)CC2)cc1", "note": "[Example 90, N-Cyclopropyl-N-(3′-fluoro-5′-trifluoromethyl-3,4,5,6-tetrahydro-2H-[1,2′]bipyridinyl-4-yl)-4-(2-methyl-imidazol-1-yl)-benzamide]", "EC50": 149}
{"molecule": "O=C(c1ccc(-n2cncn2)cc1)N(C1CC1)C1CCN(c2ncc(C(F)(F)F)cc2F)CC1", "note": "[Example 91, N-Cyclopropyl-N-(3′-fluoro-5′-trifluoromethyl-3,4,5,6-tetrahydro-2H-[1,2′]bipyridinyl-4-yl)-4-[1,2,4]triazol-1-yl-benzamide]", "EC50": 48}
{"molecule": "Cc1ncnn1-c1ccc(C(=O)N(C2CC2)C2CCN(c3ncc(C(F)(F)F)cc3F)CC2)cc1", "note": "[Example 92, N-Cyclopropyl-N-(3′-fluoro-5′-trifluoromethyl-3,4,5,6-tetrahydro-2H-[1,2′]bipyridinyl-4-yl)-4-(5-methyl-[1,2,4]triazol-1-yl)-benzamide]", "EC50": 265}
{"molecule": "Cc1nccn1-c1ccc(C(=O)N(C2CC2)C2CCN(c3ncc(C(F)(F)F)cc3F)CC2)cc1F", "note": "[Example 93, N-Cyclopropyl-3-fluoro-N-(3′-fluoro-5′-trifluoromethyl-3,4,5,6-tetrahydro-2H-[1,2′]bipyridinyl-4-yl)-4-(2-methyl-imidazol-1-yl)-benzamide]", "EC50": 168}
{"molecule": "O=C(c1ccc(-n2cncn2)c(F)c1)N(C1CC1)C1CCN(c2ncc(C(F)(F)F)cc2F)CC1", "note": "[Example 94, N-Cyclopropyl-3-fluoro-N-(3′-fluoro-5′-trifluoromethyl-3,4,5,6-tetrahydro-2H-[1,2′]bipyridinyl-4-yl)-4-[1,2,4]triazol-1-yl-benzamide]", "EC50": 10}
{"molecule": "Cc1ncnn1-c1ccc(C(=O)N(C2CC2)C2CCN(c3ncc(C(F)(F)F)cc3F)CC2)cc1F", "note": "[Example 95, N-Cyclopropyl-3-fluoro-N-(3′-fluoro-5′-trifluoromethyl-3,4,5,6-tetrahydro-2H-[1,2′]bipyridinyl-4-yl)-4-(5-methyl-[1,2,4]triazol-1-yl)-benzamide]", "EC50": 595}
{"molecule": "Cc1nccn1-c1ccc(C(=O)N(C2CC2)C2CCN(c3nc(C(C)C)no3)CC2)cc1", "note": "[Example 96, N-Cyclopropyl-N-[1-(3-isopropyl-[1,2,4]oxadiazol-5-yl)-piperidin-4-yl]-4-(2-methyl-imidazol-1-yl)-benzamide]", "EC50": 1630}
{"molecule": "CC(C)c1noc(N2CCC(N(C(=O)c3ccc(-n4cncn4)cc3)C3CC3)CC2)n1", "note": "[Example 97, N-Cyclopropyl-N-[1-(3-isopropyl-[1,2,4]oxadiazol-5-yl)-piperidin-4-yl]-4-[1,2,4]triazol-1-yl-benzamide]", "EC50": 170}
{"molecule": "Cc1nccn1-c1ccc(C(=O)N(C2CC2)C2CCN(c3nc(C(C)C)no3)CC2)cc1F", "note": "[Example 99, N-Cyclopropyl-3-fluoro-N-[1-(3-isopropyl-[1,2,4]oxadiazol-5-yl)-piperidin-4-yl]-4-(2-methyl-imidazol-1-yl)-benzamide]", "EC50": 1740}
{"molecule": "CC(C)c1noc(N2CCC(N(C(=O)c3ccc(-n4cncn4)c(F)c3)C3CC3)CC2)n1", "note": "[Example 100, N-Cyclopropyl-3-fluoro-N-[1-(3-isopropyl-[1,2,4]oxadiazol-5-yl)-piperidin-4-yl]-4-[1,2,4]triazol-1-yl-benzamide]", "EC50": 45}
{"molecule": "Cc1ncnn1-c1ccc(C(=O)N(C2CC2)C2CCN(c3nc(C(C)C)no3)CC2)cc1F", "note": "[Example 101, N-Cyclopropyl-3-fluoro-N-[1-(3-isopropyl-[1,2,4]oxadiazol-5-yl)-piperidin-4-yl]-4-(5-methyl-[1,2,4]triazol-1-yl)-benzamide]", "EC50": 1130}
{"molecule": "CCc1cnc(N2CCC(N(C(=O)c3ccc(-n4ccnc4C)cc3)C3CC3)CC2)nc1", "note": "[Example 102, N-Cyclopropyl-N-[1-(5-ethyl-pyrimidin-2-yl)-piperidin-4-yl]-4-(2-methyl-imidazol-1-yl)-benzamide]", "EC50": 1090}
{"molecule": "CCc1cnc(N2CCC(N(C(=O)c3ccc(-n4ncnc4C)cc3)C3CC3)CC2)nc1", "note": "[Example 103, N-Cyclopropyl-N-[1-(5-ethyl-pyrimidin-2-yl)-piperidin-4-yl]-4-(5-methyl-[1,2,4]triazol-1-yl)-benzamide]", "EC50": 1590}
{"molecule": "CCc1cnc(N2CCC(N(C(=O)c3ccc(-n4ccnc4C)c(F)c3)C3CC3)CC2)nc1", "note": "[Example 104, N-Cyclopropyl-N-[1-(5-ethyl-pyrimidin-2-yl)-piperidin-4-yl]-3-fluoro-4-(2-methyl-imidazol-1-yl)-benzamide]", "EC50": 1950}
{"molecule": "CCc1cnc(N2CCC(N(C(=O)c3ccc(-n4cncn4)c(F)c3)C3CC3)CC2)nc1", "note": "[Example 105, N-Cyclopropyl-N-[1-(5-ethyl-pyrimidin-2-yl)-piperidin-4-yl]-3-fluoro-4-[1,2,4]triazol-1-yl-benzamide]", "EC50": 53}
{"molecule": "CCc1cnc(N2CCC(N(C(=O)c3ccc(-n4ncnc4C)c(F)c3)C3CC3)CC2)nc1", "note": "[Example 106, N-Cyclopropyl-N-[1-(5-ethyl-pyrimidin-2-yl)-piperidin-4-yl]-3-fluoro-4-(5-methyl-[1,2,4]triazol-1-yl)-benzamide]", "EC50": 885}
{"molecule": "Cc1nccn1-c1ccc(C(=O)N(C2CC2)C2CCN(c3ncc(Cl)cn3)CC2)cc1", "note": "[Example 107, N-[1-(5-Chloro-pyrimidin-2-yl)-piperidin-4-yl]-N-cyclopropyl-4-(2-methyl-imidazol-1-yl)-benzamide]", "EC50": 549}
{"molecule": "O=C(c1ccc(-n2cncn2)cc1)N(C1CC1)C1CCN(c2ncc(Cl)cn2)CC1", "note": "[Example 108, N-[1-(5-Chloro-pyrimidin-2-yl)-piperidin-4-yl]-N-cyclopropyl-4-[1,2,4]triazol-1-yl-benzamide]", "EC50": 552}
{"molecule": "Cc1ncnn1-c1ccc(C(=O)N(C2CC2)C2CCN(c3ncc(Cl)cn3)CC2)cc1", "note": "[Example 109, N-[1-(5-Chloro-pyrimidin-2-yl)-piperidin-4-yl]-N-cyclopropyl-4-(5-methyl-[1,2,4]triazol-1-yl)-benzamide]", "EC50": 1740}
{"molecule": "O=C(c1ccc(-n2cnnn2)cc1)N(C1CC1)C1CCN(c2ncc(Cl)cn2)CC1", "note": "[Example 110, N-[1-(5-Chloro-pyrimidin-2-yl)-piperidin-4-yl]-N-cyclopropyl-4-tetrazol-1-yl-benzamide]", "EC50": 360}
{"molecule": "Cc1nnnn1-c1ccc(C(=O)N(C2CC2)C2CCN(c3ncc(Cl)cn3)CC2)cc1", "note": "[Example 111, N-[1-(5-Chloro-pyrimidin-2-yl)-piperidin-4-yl]-N-cyclopropyl-4-(5-methyl-tetrazol-1-yl)-benzamide]", "EC50": 407}
{"molecule": "Cc1nccn1-c1ccc(C(=O)N(C2CC2)C2CCN(c3ncc(Cl)cn3)CC2)cc1F", "note": "[Example 112, N-[1-(5-Chloro-pyrimidin-2-yl)-piperidin-4-yl]-N-cyclopropyl-3-fluoro-4-(2-methyl-imidazol-1-yl)-benzamide]", "EC50": 1500}
{"molecule": "O=C(c1ccc(-n2cncn2)c(F)c1)N(C1CC1)C1CCN(c2ncc(Cl)cn2)CC1", "note": "[Example 113, N-[1-(5-Chloro-pyrimidin-2-yl)-piperidin-4-yl]-N-cyclopropyl-3-fluoro-4-[1,2,4]triazol-1-yl-benzamide]", "EC50": 47}
{"target": "T2, human GPR119 (Homo sapiens, UniProt Q8TDV5)", "T2 construct": "expression vector for human GPR119 cDNA (Acc. No. NP_848566); expressed in transfected cells", "T2 sequence (Q8TDV5 1-335)": "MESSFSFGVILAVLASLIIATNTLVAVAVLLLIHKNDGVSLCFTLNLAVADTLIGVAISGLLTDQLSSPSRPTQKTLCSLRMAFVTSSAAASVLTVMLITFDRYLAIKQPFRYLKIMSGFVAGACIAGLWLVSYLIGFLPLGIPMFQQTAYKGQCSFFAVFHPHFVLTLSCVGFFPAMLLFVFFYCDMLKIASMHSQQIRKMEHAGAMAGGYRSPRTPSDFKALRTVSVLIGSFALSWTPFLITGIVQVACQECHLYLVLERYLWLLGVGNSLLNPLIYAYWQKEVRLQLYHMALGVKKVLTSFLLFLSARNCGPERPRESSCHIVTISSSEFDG", "experiment": "AlphaScreen cAMP assay in MIN6 cells stably transfected with human GPR119", "assay_type": "cell-based", "details": "Min-6/hGPR119 cells, AlphaScreen cAMP Assay Kit, 45 minutes incubation at room temperature", "procedure,_shortened": "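MIN6 cells stably expressing human GPR119, seeded 24 h, then stimulated 45 min at room temperature with compound in pH 7.4 Hepes-buffered salt solution with 0.5 mM IBMX, 0.1% BSA, 1% DMSO. Intracellular cAMP measured by AlphaScreen.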", "units": {"EC50": "nM"}}
{"molecule": "Cc1cnc(N2CCC(N(C(=O)c3ccc(-c4cnco4)cc3)C3CC3)CC2)nc1", "note": "[Example 89, N-Cyclopropyl-N-[1-(5-methyl-pyrimidin-2-yl)-piperidin-4-yl]-4-oxazol-5-yl-benzamide]", "EC50": 34}
